Measured values: article PMC8881610 (Nature Communications, 2022)
Where a chain is given by its changes, count along the chain named.

Tests used:
[1] = target: T1, GIPR (Homo sapiens, UniProt P48546, Y141A); assay: cAMP accumulation assay (LANCE Ultra cAMP kit), GIPR WT, mutant or modified constructs; type: cell-based; parameters: acylated tirzepatide to the full-length or modified; Flag; expressed in transfected cells; host or cells: HEK293T; details: GIPR Y141A, HEK293T
T1 sequence (P48546 22-466 Y141A): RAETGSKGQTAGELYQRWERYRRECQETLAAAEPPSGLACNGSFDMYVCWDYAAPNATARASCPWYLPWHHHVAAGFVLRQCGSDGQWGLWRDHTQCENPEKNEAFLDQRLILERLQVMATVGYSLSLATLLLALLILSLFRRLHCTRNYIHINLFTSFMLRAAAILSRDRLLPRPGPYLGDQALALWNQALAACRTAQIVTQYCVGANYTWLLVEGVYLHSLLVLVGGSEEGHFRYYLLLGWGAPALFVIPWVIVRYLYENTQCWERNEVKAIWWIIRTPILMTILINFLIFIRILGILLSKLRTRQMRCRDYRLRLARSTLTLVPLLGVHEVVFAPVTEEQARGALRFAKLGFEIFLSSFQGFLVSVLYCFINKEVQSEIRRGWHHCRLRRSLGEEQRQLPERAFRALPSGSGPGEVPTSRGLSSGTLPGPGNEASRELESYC
Summary of the method: (§1)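 HEK293T cells transiently transfected with human GIPR WT or mutant constructs (pcDNA3.1), used after 24 h. The cells were stimulated with peptide agonists for 40 min at RT in HBSS with 5 mM HEPES, 0.1% BSA or casein, and 0.5 mM IBMX. cAMP was read by LANCE Ultra TR-FRET (Eu-cAMP tracer/ULight anti-cAMP, 1 h RT, 620/650 nm).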

[2] = target: T2, GIPR (Homo sapiens, UniProt P48546, R192A); assay: as above; type: cell-based; parameters: acylated tirzepatide to the full-length or modified; Flag; expressed in transfected cells; host or cells: HEK293T; details: GIPR R192A, HEK293T
T2 sequence (P48546 22-466 R192A): T1 sequence (P48546 22-466 Y141A) with A120Y, R171A
Summary of the method: as §1

[3] = target: T3, GLP-1R (Homo sapiens, UniProt P43220, K197A); assay: cAMP accumulation assay, GLP-1R WT, mutant or modified constructs; type: cell-based; details: HEK-293T, GLP-1R K197A; HEK293T
T3 construct: Flag; expressed in transfected cells; host or cells: HEK293T
T3 sequence (P43220 24-463 K197A): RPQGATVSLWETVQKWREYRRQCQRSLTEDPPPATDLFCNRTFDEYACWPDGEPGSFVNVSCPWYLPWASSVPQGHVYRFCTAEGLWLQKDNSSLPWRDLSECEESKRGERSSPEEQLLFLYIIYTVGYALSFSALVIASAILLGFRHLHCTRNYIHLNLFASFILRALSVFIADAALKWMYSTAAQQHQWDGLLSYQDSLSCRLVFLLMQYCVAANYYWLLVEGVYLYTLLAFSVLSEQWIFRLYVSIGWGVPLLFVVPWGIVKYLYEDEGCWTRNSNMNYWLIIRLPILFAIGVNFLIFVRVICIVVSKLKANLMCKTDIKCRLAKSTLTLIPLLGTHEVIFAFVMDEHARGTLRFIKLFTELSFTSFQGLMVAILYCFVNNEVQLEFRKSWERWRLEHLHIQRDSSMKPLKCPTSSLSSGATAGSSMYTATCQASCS
Description: (§2) Human embryonic kidney 293 cells containing SV40 large T-antigen (HEK293T) were cultured in DMEM (Gibco) supplemented with 10% (v/v) fetal bovine serum (FBS, Gibco), 1 mM sodium pyruvate (Gibco) and 100 units/mL penicillin and 100 μg/mL streptomycin at 37 °C in 5% CO2. Chinese hamster ovary (CHO-K1) cells were cultured in F-12 (Gibco) containing 10% FBS, 100 units/mL penicillin and 100 μg/mL streptomycin at 37 °C in 5% CO2. For cAMP and receptor expression assays, HEK293T cells were seeded into 6-well cell culture plates at a density of 7 × 10^5 cells per well. After overnight incubation, cells were transfected with GIPR, GLP-1R or GCGR construct using Lipofectamine 2000 or Lipofectamine 3000 transfection reagent (Invitrogen). For whole-cell binding assay, CHO-K1 cells were seeded into 96-well fibronectin-treated cell culture plates at a density of 3 × 10^4 cells per well. After overnight incubation, cells were transfected with GIPR, GLP-1R or GCGR construct using Lipofectamine 2000 transfection reagent (Invitrogen). Following 24 h culturing, the transfected cells were ready for use. […]
(§3) For GIPR, GLP-1R and GCGR, multi-targeting agonist stimulated cAMP accumulation was measured by a LANCE Ultra cAMP kit (PerkinElmer). […] Plates were incubated at RT for 1 h and the fluorescence intensity measured at 620 nm and […] by an EnVision multilabel plate reader (PerkinElmer).

[4] = target: T4, GLP-1R (Homo sapiens, UniProt P43220, R190A); assay: as above; type: cell-based; details: HEK-293T, GLP-1R R190A; HEK293T
T4 construct: Flag; expressed in transfected cells; host or cells: HEK293T
T4 sequence (P43220 24-463 R190A): as the sequence (P43220 24-463 K197A) above, with R167A, A174K counted along it
Description: as §2, §3

[5] = clinical trial outcome; Drugs@FDA, ChemBL, ClinicalTrials.gov; cited from earlier work
[6] = read-out: cAMP pEC50 (converted)

| Compound | EC50 [1, 6] [nM] | Emax ([1]; HEK-293T) [%] | EC50 [2, 6] [nM] | Emax ([2]; HEK-293T) [%] | Emax [3] [%] | Emax [4] [%] | Body weight [5] | Fasting plasma glucose [5] |
| --- | --- | --- | --- | --- | --- | --- | --- | --- |
| CCCCCCCCCCCCCCCC(=O)N[C@@H](CCC(=O)NCCCC[C@H](NC(=O)[C@H](CC(=O)O)NC(=O)[C@H](CO)NC(=O)[C@@H](NC(=O)[C@H](Cc1ccccc1)NC(=O)[C@@H](NC(=O)CNC(=O)[C@H](CCC(N)=O)NC(=O)C(C)(C)NC(=O)[C@@H](N)Cc1c[nH]cn1)[C@@H](C)O)[C@@H](C)O)C(=O)N[C@@H](CO)C(=O)N[C@@H](CCCCN)C(=O)N[C@@H](Cc1ccc(O)cc1)C(=O)N[C@@H](CC(C)C)C(=O)N[C@@H](CC(=O)O)C(=O)N[C@@H](CCC(=O)O)C(=O)N[C@@H](CCCNC(=N)N)C(=O)N[C@@H](C)C(=O)N[C@@H](C)C(=O)N[C@@H](CCC(N)=O)C(=O)N[C@@H](CC(=O)O)C(=O)N[C@@H](Cc1ccccc1)C(=O)N[C@H](C(=O)N[C@@H](CCC(N)=O)C(=O)N[C@@H](Cc1c[nH]c2ccccc12)C(=O)N[C@@H](CC(C)C)C(=O)N[C@@H](CC(C)C)C(=O)N[C@@H](CC(=O)O)C(=O)NCC(=O)NCC(=O)N1CCC[C@H]1C(=O)N[C@@H](CO)C(=O)N[C@@H](CO)C(=O)NCC(=O)N[C@@H](C)C(=O)N1CCC[C@H]1C(=O)N1CCC[C@H]1C(=O)N1CCC[C@H]1C(=O)N[C@@H](CO)C(N)=O)C(C)C)C(=O)O [Peptide 20] | 3.72 | 75.1 ± 1.79 | 0.0302 | 101 ± 1.91 |  |  |  |  |
| CC[C@H](C)[C@H](NC(=O)[C@H](CC(C)C)NC(=O)[C@H](Cc1c[nH]c2ccccc12)NC(=O)[C@H](CCC(N)=O)NC(=O)[C@@H](NC(=O)[C@H](Cc1ccccc1)NC(=O)[C@H](C)NC(=O)[C@H](CCCCNC(=O)COCCOCCNC(=O)COCCOCCNC(=O)CC[C@H](NC(=O)CCCCCCCCCCCCCCCCCCC(=O)O)C(=O)O)NC(=O)[C@H](CCC(N)=O)NC(=O)[C@H](C)NC(=O)[C@@H](NC(=O)[C@H](CCCCN)NC(=O)[C@H](CC(=O)O)NC(=O)[C@H](CC(C)C)NC(=O)C(C)(C)NC(=O)[C@@H](NC(=O)[C@H](CO)NC(=O)[C@H](Cc1ccc(O)cc1)NC(=O)[C@H](CC(=O)O)NC(=O)[C@H](CO)NC(=O)[C@@H](NC(=O)[C@H](Cc1ccccc1)NC(=O)[C@@H](NC(=O)CNC(=O)[C@H](CCC(=O)O)NC(=O)C(C)(C)NC(=O)[C@@H](N)Cc1ccc(O)cc1)[C@@H](C)O)[C@@H](C)O)[C@@H](C)CC)[C@@H](C)CC)C(C)C)C(=O)N[C@@H](C)C(=O)NCC(=O)NCC(=O)N1CCC[C@H]1C(=O)N[C@@H](CO)C(=O)N[C@@H](CO)C(=O)NCC(=O)N[C@@H](C)C(=O)N1CCC[C@H]1C(=O)N1CCC[C@H]1C(=O)N1CCC[C@H]1C(=O)N[C@@H](CO)C(N)=O [Tirzepatide] |  |  |  |  | 111 ± 2.77 | 102 ± 2.41 | -5.30 ~ -5.70 kg or % | -60.70 ~ -74.20 mg/dL |
